Results: ChEMBL document CHEMBL5465560, “Selectivity Literature for EUbOPEN Chemogenomic Library” (2024)

Legend:
[1] = tested on: Proto-oncogene tyrosine-protein kinase receptor Ret (Homo sapiens), P07949 [M918T]; experiment: (§1) Selectivity interaction (KinomeScan (DiscoverX)) EUB0001049a RET; settings: at 1 µM
[2] = tested on: Proto-oncogene tyrosine-protein kinase receptor Ret (Homo sapiens), P07949 [V804M]; experiment: as §1; settings: at 1 µM
[3] = biological target: Proto-oncogene tyrosine-protein kinase receptor Ret (Homo sapiens, UniProt P07949); experiment: as §1; settings: at 1 µM
[4] = tested on: Proto-oncogene tyrosine-protein kinase receptor Ret (Homo sapiens), P07949 [V804L]; experiment: as §1; settings: at 1 µM
[5] = biological target: Protein-tyrosine kinase 6 (Homo sapiens, UniProt Q13882); experiment: Selectivity interaction (KinaseProfiler screening (Millipore)) EUB0000601a PTK6; settings: at 3 µM
[6] = biological target: Cyclin-dependent kinase 15 (Homo sapiens) (UniProt Q96Q40); experiment: Selectivity interaction (KinomeScan (DiscoverX)) EUB0000595a CDK15; settings: at 10 µM
[7] = biological target: T1, Myotonin-protein kinase (Homo sapiens) (UniProt Q09013); experiment: Selectivity interaction (KinomeScan (DiscoverX)) EUB0000045b DMPK
T1 sequence (whole entry): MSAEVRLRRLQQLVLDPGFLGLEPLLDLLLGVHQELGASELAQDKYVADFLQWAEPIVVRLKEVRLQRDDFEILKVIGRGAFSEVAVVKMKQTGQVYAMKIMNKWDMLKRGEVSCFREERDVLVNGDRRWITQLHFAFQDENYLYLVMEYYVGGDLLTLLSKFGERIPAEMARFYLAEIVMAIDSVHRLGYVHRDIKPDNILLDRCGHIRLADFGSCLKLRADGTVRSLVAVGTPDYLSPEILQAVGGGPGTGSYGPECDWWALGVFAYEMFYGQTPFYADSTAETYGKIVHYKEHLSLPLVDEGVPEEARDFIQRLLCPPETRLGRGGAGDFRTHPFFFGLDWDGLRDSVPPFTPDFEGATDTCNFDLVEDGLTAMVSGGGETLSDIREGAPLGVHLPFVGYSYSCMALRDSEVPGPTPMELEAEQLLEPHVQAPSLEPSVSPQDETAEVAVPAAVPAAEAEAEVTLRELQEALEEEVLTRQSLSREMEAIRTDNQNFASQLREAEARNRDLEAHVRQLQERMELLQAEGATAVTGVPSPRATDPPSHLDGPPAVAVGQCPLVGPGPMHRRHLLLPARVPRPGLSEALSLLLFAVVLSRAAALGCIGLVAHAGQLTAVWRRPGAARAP

[8] = biological target: Receptor tyrosine-protein kinase erbB-4 (Homo sapiens, UniProt Q15303); experiment: Selectivity interaction (KinomeScan (DiscoverX)) EUB0000655a ERBB4; settings: at 10 µM
[9] = biological target: T2, Tyrosine-protein kinase Tec (Homo sapiens) (UniProt P42680); experiment: Selectivity interaction (KinomeScan (DiscoverX)) EUB0000695a TEC; settings: at 100 nM
T2 sequence (whole entry): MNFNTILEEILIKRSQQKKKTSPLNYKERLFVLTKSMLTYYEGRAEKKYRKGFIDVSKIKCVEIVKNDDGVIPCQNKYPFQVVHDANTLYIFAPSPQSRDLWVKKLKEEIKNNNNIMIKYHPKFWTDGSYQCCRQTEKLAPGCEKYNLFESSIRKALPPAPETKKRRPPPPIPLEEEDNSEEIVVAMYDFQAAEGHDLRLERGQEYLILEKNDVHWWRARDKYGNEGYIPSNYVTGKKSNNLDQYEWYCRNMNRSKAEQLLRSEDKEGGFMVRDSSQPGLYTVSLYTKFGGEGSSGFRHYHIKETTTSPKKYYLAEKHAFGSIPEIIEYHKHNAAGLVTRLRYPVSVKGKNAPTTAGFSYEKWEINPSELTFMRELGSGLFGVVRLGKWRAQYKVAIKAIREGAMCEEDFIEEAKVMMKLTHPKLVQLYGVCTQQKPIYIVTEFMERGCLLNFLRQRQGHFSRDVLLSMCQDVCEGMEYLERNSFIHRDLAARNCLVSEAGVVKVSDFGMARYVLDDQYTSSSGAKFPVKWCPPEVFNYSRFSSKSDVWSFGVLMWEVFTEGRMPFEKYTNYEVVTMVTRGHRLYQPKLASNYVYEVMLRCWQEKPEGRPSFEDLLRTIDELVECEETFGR

[10] = tested on: T3, Receptor-type tyrosine-protein kinase FLT3 (Homo sapiens), P36888 [D835Y]; experiment: (§2) Selectivity interaction (Kinase panel (Z-LYTE Assay)) EUB0001632a FLT3; settings: at 10 µM
T3 sequence (whole entry): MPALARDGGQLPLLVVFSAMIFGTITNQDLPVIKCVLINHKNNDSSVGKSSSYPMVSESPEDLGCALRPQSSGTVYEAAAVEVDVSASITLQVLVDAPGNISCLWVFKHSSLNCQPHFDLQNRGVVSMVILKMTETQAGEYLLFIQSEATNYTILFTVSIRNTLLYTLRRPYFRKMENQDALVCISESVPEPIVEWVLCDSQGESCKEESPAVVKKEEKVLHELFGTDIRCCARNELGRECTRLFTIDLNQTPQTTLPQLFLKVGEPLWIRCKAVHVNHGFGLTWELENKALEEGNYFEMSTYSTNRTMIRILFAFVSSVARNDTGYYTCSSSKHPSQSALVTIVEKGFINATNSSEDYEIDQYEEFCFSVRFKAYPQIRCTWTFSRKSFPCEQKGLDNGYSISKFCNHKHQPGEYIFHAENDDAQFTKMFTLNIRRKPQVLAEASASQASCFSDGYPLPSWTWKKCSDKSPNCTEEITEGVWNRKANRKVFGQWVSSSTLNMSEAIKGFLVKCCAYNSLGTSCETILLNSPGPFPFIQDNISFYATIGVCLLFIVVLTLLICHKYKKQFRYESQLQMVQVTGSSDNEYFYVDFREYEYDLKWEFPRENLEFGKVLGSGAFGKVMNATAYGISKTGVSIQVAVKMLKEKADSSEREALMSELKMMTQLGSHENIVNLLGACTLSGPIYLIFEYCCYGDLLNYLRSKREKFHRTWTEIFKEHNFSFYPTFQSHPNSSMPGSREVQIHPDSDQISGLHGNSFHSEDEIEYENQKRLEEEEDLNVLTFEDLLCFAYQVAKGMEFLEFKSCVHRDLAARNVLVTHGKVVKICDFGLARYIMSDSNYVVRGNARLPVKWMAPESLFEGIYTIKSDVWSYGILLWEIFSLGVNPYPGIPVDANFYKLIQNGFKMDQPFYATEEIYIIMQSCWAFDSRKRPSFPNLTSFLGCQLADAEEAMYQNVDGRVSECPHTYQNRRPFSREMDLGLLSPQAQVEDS

[11] = biological target: Receptor-type tyrosine-protein kinase FLT3 (Homo sapiens) (UniProt P36888); experiment: as §2; settings: at 10 µM

Chain of Proto-oncogene tyrosine-protein kinase receptor Ret (Homo sapiens), P07949 [V804L] (P07949 whole entry V804L): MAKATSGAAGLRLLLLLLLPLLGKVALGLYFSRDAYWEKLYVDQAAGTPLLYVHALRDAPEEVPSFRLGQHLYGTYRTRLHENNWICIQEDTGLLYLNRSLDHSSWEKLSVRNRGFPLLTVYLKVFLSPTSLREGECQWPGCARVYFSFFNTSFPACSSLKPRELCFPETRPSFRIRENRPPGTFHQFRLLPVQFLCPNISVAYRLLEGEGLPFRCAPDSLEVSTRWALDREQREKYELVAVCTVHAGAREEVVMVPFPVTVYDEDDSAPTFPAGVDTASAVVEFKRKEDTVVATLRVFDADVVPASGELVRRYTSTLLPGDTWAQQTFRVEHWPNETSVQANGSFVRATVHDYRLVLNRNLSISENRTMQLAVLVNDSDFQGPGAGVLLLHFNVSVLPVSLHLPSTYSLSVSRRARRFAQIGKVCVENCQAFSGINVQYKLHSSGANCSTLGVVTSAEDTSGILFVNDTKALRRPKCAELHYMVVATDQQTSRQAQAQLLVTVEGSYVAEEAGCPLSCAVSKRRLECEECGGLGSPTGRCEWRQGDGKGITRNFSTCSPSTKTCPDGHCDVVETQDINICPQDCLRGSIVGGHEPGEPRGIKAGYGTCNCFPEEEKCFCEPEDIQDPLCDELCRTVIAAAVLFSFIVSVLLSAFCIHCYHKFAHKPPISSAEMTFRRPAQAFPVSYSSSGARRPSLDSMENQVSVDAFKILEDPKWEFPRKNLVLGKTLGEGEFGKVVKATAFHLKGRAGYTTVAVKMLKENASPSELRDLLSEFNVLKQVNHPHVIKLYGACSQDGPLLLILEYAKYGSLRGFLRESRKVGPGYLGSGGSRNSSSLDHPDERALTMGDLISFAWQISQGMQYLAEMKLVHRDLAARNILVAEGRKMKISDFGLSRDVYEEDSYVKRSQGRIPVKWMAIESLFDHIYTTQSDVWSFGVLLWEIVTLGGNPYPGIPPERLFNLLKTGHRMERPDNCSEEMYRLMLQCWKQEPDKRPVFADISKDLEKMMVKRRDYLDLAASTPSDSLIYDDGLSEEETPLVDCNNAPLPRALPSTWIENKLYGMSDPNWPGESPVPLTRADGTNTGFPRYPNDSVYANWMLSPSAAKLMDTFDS
Chain of Receptor tyrosine-protein kinase erbB-4 (Q15303 whole entry): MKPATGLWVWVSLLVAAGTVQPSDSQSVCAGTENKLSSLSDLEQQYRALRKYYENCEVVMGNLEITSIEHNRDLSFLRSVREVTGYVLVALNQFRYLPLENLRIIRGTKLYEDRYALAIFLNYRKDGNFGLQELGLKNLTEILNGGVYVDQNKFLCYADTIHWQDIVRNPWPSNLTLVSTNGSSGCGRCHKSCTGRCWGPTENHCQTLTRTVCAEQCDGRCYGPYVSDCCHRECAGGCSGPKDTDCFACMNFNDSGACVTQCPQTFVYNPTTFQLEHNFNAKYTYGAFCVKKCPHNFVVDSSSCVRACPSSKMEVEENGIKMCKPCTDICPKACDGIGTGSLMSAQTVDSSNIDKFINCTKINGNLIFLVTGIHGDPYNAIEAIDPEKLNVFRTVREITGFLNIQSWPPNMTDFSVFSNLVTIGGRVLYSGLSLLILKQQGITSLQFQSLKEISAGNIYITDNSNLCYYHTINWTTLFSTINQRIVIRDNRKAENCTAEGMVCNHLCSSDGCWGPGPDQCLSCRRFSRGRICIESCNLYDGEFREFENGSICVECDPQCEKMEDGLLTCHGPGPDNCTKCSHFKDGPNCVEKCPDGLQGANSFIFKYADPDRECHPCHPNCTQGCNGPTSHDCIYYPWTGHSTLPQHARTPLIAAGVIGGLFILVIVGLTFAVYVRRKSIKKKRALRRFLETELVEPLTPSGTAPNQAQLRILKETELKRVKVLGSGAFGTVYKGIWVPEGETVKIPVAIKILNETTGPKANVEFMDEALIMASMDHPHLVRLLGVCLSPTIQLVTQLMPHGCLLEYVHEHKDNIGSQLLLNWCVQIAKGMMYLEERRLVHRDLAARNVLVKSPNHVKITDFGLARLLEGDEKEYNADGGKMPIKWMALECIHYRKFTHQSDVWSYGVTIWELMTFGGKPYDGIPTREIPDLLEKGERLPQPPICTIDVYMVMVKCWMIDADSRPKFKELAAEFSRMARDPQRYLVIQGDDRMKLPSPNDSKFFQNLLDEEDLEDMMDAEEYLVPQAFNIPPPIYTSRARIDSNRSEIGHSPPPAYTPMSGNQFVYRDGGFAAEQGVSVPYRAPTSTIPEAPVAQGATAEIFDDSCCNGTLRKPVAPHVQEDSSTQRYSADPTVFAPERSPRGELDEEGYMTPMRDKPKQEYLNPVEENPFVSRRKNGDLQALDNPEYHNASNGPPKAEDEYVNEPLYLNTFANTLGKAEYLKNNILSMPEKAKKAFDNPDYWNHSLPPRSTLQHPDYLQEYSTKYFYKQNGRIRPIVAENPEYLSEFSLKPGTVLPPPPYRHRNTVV
Chain of Protein-tyrosine kinase 6 (Q13882 whole entry, looked up): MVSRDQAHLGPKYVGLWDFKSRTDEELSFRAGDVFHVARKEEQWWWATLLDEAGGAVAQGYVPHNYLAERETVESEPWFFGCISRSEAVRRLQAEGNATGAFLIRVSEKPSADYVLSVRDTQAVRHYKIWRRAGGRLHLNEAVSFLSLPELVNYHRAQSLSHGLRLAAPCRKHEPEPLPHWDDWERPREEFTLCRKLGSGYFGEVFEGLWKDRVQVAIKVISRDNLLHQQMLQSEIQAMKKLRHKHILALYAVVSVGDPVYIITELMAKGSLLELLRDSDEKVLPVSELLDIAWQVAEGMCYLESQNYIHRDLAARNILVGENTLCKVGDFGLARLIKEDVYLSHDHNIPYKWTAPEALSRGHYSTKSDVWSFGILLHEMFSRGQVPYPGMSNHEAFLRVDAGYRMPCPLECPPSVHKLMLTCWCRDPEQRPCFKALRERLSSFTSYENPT
Chain of Cyclin-dependent kinase 15 (Homo sapiens) (Q96Q40 whole entry): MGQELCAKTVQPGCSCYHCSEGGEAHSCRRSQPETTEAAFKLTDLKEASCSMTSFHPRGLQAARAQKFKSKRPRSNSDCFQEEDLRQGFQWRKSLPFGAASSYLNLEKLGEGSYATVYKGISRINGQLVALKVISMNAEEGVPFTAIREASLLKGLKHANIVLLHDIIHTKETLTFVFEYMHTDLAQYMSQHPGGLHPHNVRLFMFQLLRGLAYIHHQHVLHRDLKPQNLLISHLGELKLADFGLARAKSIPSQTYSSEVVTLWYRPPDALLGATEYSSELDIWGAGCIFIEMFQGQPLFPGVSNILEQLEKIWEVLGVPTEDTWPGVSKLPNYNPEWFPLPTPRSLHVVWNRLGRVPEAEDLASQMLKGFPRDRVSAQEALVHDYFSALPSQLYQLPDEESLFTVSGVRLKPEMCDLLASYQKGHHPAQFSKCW
Chain of Proto-oncogene tyrosine-protein kinase receptor Ret (Homo sapiens), P07949 [M918T] (P07949 whole entry M918T): as the sequence (P07949 whole entry V804L) above, with L804V, M918T counted along it
Chain of Proto-oncogene tyrosine-protein kinase receptor Ret (P07949 whole entry): as the sequence (P07949 whole entry V804L) above, with L804V counted along it
Chain of Proto-oncogene tyrosine-protein kinase receptor Ret (Homo sapiens), P07949 [V804M] (P07949 whole entry V804M): as the sequence (P07949 whole entry V804L) above, with L804M counted along it

COc1cc(Nc2nc(C)cc(-c3cnn4nc(OC)ccc34)n2)cc(C(F)(F)F)c1
% of control [1]: 98%
% of control [2]: 78%
% of control [3]: 100%
% of control [4]: 95%

CCc1cc(Nc2nccc(-c3c(-c4ccc(OC)c(C(=O)Nc5c(F)cccc5F)c4)nc4ccccn34)n2)c(OC)cc1N1CCC(N2CCN(S(C)(=O)=O)CC2)CC1
% of inhibition [5]: 65%

COCC(=O)NC/C=C/c1ccc2ncnc(Nc3ccc(Oc4ccc(C)nc4)c(C)c3)c2c1 [CP-724714]
% of control [6]: 71%

C=CC(=O)Nc1cc(-n2c(=O)ccc3cnc4ccc(-c5ccc(NS(C)(=O)=O)cc5)cc4c32)ccc1C
% of control ([7]; at 1 µM): 91%
% of control ([7]; at 10 µM): 100%

CN(C)CCOc1ccc(-c2nc(-c3ccncc3)c(-c3ccc4c(c3)CC/C4=N\O)[nH]2)cc1
% of control [8]: 73%

Cc1cc(F)c(C(=O)Nc2cccc(-c3nncn3C(C)C)n2)cc1-n1cnc(C2CC2)c1
% of control [9]: 100%

Cn1cc(-n2cnc3c(NCc4nc5cc(Cl)c(Cl)cc5[nH]4)nc(N4CCOCC4)nc32)cn1
% of control [10]: 33.4%
% of control [11]: 34.1%
